Molecules are shown by their SMILES. Numbered stars: 1 amine (or outer) side, 2 acyl side, 3 side chain; on linkers, the order of the positions; unused ones are H or OH. Bridge positions count the residues as written; N and C are the ends. Square brackets hold non-standard residues; d marks the D form. Peptide text beside a SMILES is read from it. * marks the point of attachment. ξ: configuration not given here. Phe(3-CF3) = N[C@@H](Cc1cccc(C(F)(F)F)c1)C(=O)O; Phe(4-COOH) = N[C@@H](Cc1ccc(C(=O)O)cc1)C(=O)O; Bip = N[C@@H](Cc1ccc(-c2ccccc2)cc1)C(=O)O; Phe(4-CN) = N#Cc1ccc(C[C@H](N)C(=O)O)cc1; Phe(3-Me) = Cc1cccc(C[C@H](N)C(=O)O)c1; βAsp = O=C(O)[C@H](CC(=O)[*:2])N[*:1]; NH(CH2)12COOH = O=C(O)CCCCCCCCCCCCN*; Val(3-OH) = CC(C)(O)[C@H](N)C(=O)O; hArg = N=C(N)NCCCC[C@H](N)C(=O)O; 4Pal = N[C@@H](Cc1ccncc1)C(=O)O; Cha = N[C@@H](CC1CCCCC1)C(=O)O; Cit = NC(=O)NCCC[C@H](N)C(=O)O; Thr(3ξ) = CC(O)[C@H](N)C(=O)O; Carboxymethyl = O=C(O)C*; Nle = CCCC[C@H](N)C(=O)O; Orn = NCCC[C@H](N)C(=O)O; Aun = NCCCCCCCCCCC(=O)O; Dab = NCC[C@H](N)C(=O)O; Dap = NC[C@H](N)C(=O)O; AEEA = NCCOCCOCC(=O)O

For the experiment, the target named is T1, PD-1/PD-L1 interaction (PE-labeled human PD-L1-Ig binding to Jurkat cell line over-expressing human PD-1) (Homo sapiens, UniProt Q15116).
T1 construct: expressed in transfected cells; host or cells: Jurkat
T1 sequence (Q15116 25-288): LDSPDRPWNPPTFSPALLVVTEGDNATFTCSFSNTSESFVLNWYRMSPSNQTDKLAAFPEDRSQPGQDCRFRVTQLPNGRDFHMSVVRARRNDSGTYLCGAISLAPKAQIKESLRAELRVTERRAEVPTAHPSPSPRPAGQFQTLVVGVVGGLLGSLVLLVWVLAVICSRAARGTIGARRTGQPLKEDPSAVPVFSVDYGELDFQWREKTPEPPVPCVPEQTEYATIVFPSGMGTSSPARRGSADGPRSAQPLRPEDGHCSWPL
Put plainly: Jurkat-PD-1 Cell Binding High-Content Screening Assay (CBA). The class given is cell-based. To be noted: Jurkat cell line over-expressing human PD-1; PE-labeled PD-L1-Ig 20 nM final; read-out: Jurkat hPD1-PDL1 IC50. Summed up: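 Binding of fluorescent PD-L1-Ig (phycoerythrin on Ig tag, 20 nM final, 1 h) measured by high-content imaging of fixed, Hoechst-counterstained Jurkat-hPD-1 cells. Compound added 2 h at 37° C beforehand, in DMEM with 10% fetal calf serum.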
On to `Cc1cccc(C[C@@H]2NC(=O)[C@H](CC(=O)O)NC(=O)[C@H](Cc3ccc(OCC(=O)O)cc3)NC(=O)[C@H](CN)NC(=O)CSC[C@@H](C(=O)NCCOCCOCC(=O)N[C@@H](CCN)C(=O)NCCCCCCCCCCC(=O)O)NC(=O)[C@H](CN)NC(=O)[C@H](C(C)C)NC(=O)[C@H](CC3CCCCC3)NC(=O)[C@H](CCN)NC(=O)[C@@H](CC(C)C)NC(=O)[C@H](CCCN)NC(=O)[C@H](C(C)C)NC(=O)[C@H](Cc3ccc(-c4ccccc4)cc3)NC(=O)[C@H](C(C)C)NC2=O)c1` [Compound 2542] ({CH2CO}-[Dap]Y(Carboxymethyl)D[Phe(3-Me)]V[Bip]V[Orn][dL][Dab][Cha]V[Dap]C[AEEA][Dab][Aun]-OH; thioether N-14), for which the IC50 (in general, the concentration that gives 50% inhibition) is 4.9 nM.

Consider `CC[C@H](C)[C@@H]1NC(=O)[C@H](Cc2ccc(-c3ccccc3)cc2)NC(=O)[C@H](C(C)C)NC(=O)[C@H](Cc2cccc(C)c2)NC(=O)[C@H](CC(=O)O)NC(=O)[C@H](Cc2ccc(C(=O)O)cc2)NC(=O)[C@H](Cc2ccncc2)NC(=O)CSC[C@@H](C(=O)N[C@@H](CCC(=O)O)C(=O)NCCCCCCCCCCC(=O)O)NC(=O)[C@H]([C@@H](C)O)NC(=O)[C@H](C(C)C)NC(=O)[C@H](CC2CCCCC2)NC(=O)[C@H](CCN)NC(=O)[C@@H](CC(C)C)NC(=O)[C@H](CCCN)NC1=O` [Compound 1040] ({CH2CO}-[4Pal][Phe(4-COOH)]D[Phe(3-Me)]V[Bip]I[Orn][dL][Dab][Cha]VTCE[Aun]-OH; thioether N-14), for which the IC50 is 52.9 nM.

`CC(C)C[C@@H]1NC(=O)CSC[C@@H](C(=O)N[C@@H](CCN)C(=O)NCCOCCOCC(=O)N[C@@H](CC(=O)NCCOCCOCC(=O)NCCCCCCCCCCCCC(=O)O)C(=O)O)NC(=O)[C@H](CO)NC(=O)[C@H](C(C)(C)O)NC(=O)[C@H](CC2CCCCC2)NC(=O)[C@H](CCN)NC(=O)[C@@H](CC(C)C)NC(=O)[C@H](CCCN)NC(=O)[C@H](Cc2ccc(C(=O)O)cc2)NC(=O)[C@H](Cc2ccc(-c3ccccc3)cc2)NC(=O)[C@H](Cc2ccc(C(=O)O)cc2)NC(=O)[C@H](Cc2cccc(C(F)(F)F)c2)NC(=O)[C@H](CC(=O)O)NC(=O)[C@H](Cc2ccc(OCC(=O)O)cc2)NC1=O` [Compound 2937] ({CH2CO}-LY(Carboxymethyl)D[Phe(3-CF3)][Phe(4-COOH)][Bip][Phe(4-COOH)][Orn][dL][Dab][Cha][Val(3-OH)]SC[Dab][AEEA][βAsp][AEEA]-{NH(CH2)12COOH}; thioether N-14): the IC50 amounted to 11.7 nM.

As to `Cc1cccc(C[C@@H]2NC(=O)[C@H](CC(=O)O)NC(=O)[C@H](Cc3ccc(OCC(=O)O)cc3)NC(=O)[C@H](CN)NC(=O)CSC[C@@H](C(=O)N[C@@H](CCCCN)C(=O)NCCOCCOCC(=O)NCCCCCCCCCCC(=O)O)NC(=O)[C@H](CCCN)NC(=O)[C@H](C(C)C)NC(=O)[C@H](CC3CCCCC3)NC(=O)[C@H](CCN)NC(=O)[C@@H](CC(C)C)NC(=O)[C@H](CCCN)NC(=O)[C@H](CCCNC(N)=O)NC(=O)[C@H](Cc3ccc(-c4ccccc4)cc3)NC(=O)[C@H](C(C)C)NC2=O)c1` [Compound 2651] ({CH2CO}-[Dap]Y(Carboxymethyl)D[Phe(3-Me)]V[Bip][Cit][Orn][dL][Dab][Cha]V[Orn]CK[AEEA][Aun]-OH; thioether N-14), the 50% inhibitory concentration (IC50) was determined as 9.7 nM.

Take `Cc1cccc(C[C@@H]2NC(=O)[C@H](CC(=O)O)NC(=O)[C@H](Cc3ccc(OCC(=O)O)cc3)NC(=O)[C@H](CN)NC(=O)CSC[C@@H](C(=O)N[C@@H](CCN)C(=O)NCCCCCCCCCCC(=O)O)NC(=O)[C@H](CCC(N)=O)NC(=O)[C@H](C(C)C)NC(=O)[C@H](CC3CCCCC3)NC(=O)[C@H](CCN)NC(=O)[C@@H](CC(C)C)NC(=O)[C@H](CCCN)NC(=O)[C@H](Cc3ccc(OCC(=O)O)cc3)NC(=O)[C@H](Cc3ccc(-c4ccccc4)cc3)NC(=O)[C@H](Cc3ccc(OCC(=O)O)cc3)NC2=O)c1` [Compound 1247] ({CH2CO}-[Dap]Y(Carboxymethyl)D[Phe(3-Me)]Y(Carboxymethyl)[Bip]Y(Carboxymethyl)[Orn][dL][Dab][Cha]VQC[Dab][Aun]-OH; thioether N-14): the 50% inhibitory concentration (IC50) was 17.6 nM.

With `CC(C)C[C@H]1NC(=O)[C@H](CCCN)NC(=O)[C@H](Cc2ccc(O)cc2)NC(=O)[C@H](Cc2ccc(-c3ccccc3)cc2)NC(=O)[C@H](C(C)C)NC(=O)[C@H](Cc2c[nH]c3ccccc23)NC(=O)[C@H](CC(=O)O)NC(=O)[C@H](Cc2ccc(OCC(=O)O)cc2)NC(=O)[C@H](CCCCNC(=N)N)NC(=O)CSC[C@@H](C(=O)N[C@@H](CCN)C(=O)NCCCCCCCCCCC(=O)O)NC(=O)[C@H](C(C)O)NC(=O)[C@H](C(C)C)NC(=O)[C@H](CC2CCCCC2)NC(=O)[C@H](CCN)NC1=O` (stereo partly drawn) [Compound 3410] ({CH2CO}-[hArg]Y(Carboxymethyl)DWV[Bip]Y[Orn][dL][Dab][Cha]V[Thr(3ξ)]C[Dab][Aun]-OH; thioether N-14), the IC50 amounted to 20.2 nM.

For the compound `Cc1cccc(C[C@@H]2NC(=O)[C@H](CC(=O)O)NC(=O)[C@H](Cc3ccc(OCC(=O)O)cc3)NC(=O)[C@H](CN)NC(=O)CSC[C@@H](C(=O)NCCOCCOCC(=O)N[C@@H](CCC(=O)O)C(=O)NCCCCCCCCCCC(=O)O)NC(=O)[C@H]([C@@H](C)O)NC(=O)[C@H](C(C)C)NC(=O)[C@H](CC3CCCCC3)NC(=O)[C@H](CCN)NC(=O)[C@@H](CC(C)C)NC(=O)[C@H](CCCN)NC(=O)[C@H](CCCNC(N)=O)NC(=O)[C@H](Cc3ccc(-c4ccccc4)cc3)NC(=O)[C@H](C(C)C)NC2=O)c1` [Compound 1033] ({CH2CO}-[Dap]Y(Carboxymethyl)D[Phe(3-Me)]V[Bip][Cit][Orn][dL][Dab][Cha]VTC[AEEA]E[Aun]-OH; thioether N-14), the IC50 worked out at 8.7 nM.

For `CC(C)C[C@H]1NC(=O)[C@H](CCCN)NC(=O)[C@H](C(C)C)NC(=O)[C@H](Cc2ccc(-c3ccccc3)cc2)NC(=O)[C@H](C(C)C)NC(=O)[C@H](Cc2c[nH]c3ccccc23)NC(=O)[C@H](CC(=O)O)NC(=O)[C@H](Cc2ccc(OCC(=O)O)cc2)NC(=O)[C@H](Cc2ccc(OCC(=O)O)cc2)NC(=O)CSC[C@@H](C(=O)N[C@@H](CCN)C(=O)NCCCCCCCCCCC(=O)O)NC(=O)[C@H](CCCN)NC(=O)[C@H](C(C)C)NC(=O)[C@H](CC2CCCCC2)NC(=O)[C@H](CCN)NC1=O` [Compound 2561] ({CH2CO}-Y(Carboxymethyl)Y(Carboxymethyl)DWV[Bip]V[Orn][dL][Dab][Cha]V[Orn]C[Dab][Aun]-OH; thioether N-14), the IC50 amounted to 14.6 nM.

In the case of `CCCC[C@@H]1NC(=O)CSC[C@@H](C(=O)N[C@@H](CCN)C(=O)NCCOCCOCC(=O)NCCOCCOCC(=O)NCCCCCCCCCCCCC(=O)O)NC(=O)[C@H](CO)NC(=O)[C@H](C(C)(C)O)NC(=O)[C@H](CC2CCCCC2)NC(=O)[C@H](CCN)NC(=O)[C@@H](CC(C)C)NC(=O)[C@H](CCCN)NC(=O)[C@H](Cc2ccc(OCC(=O)O)cc2)NC(=O)[C@H](Cc2ccc(-c3ccccc3)cc2)NC(=O)[C@H](Cc2ccc(OCC(=O)O)cc2)NC(=O)[C@H](Cc2cccc(C(F)(F)F)c2)NC(=O)[C@H](CC(=O)O)NC(=O)[C@H](Cc2ccc(OCC(=O)O)cc2)NC1=O` [Compound 3829] ({CH2CO}-[Nle]Y(Carboxymethyl)D[Phe(3-CF3)]Y(Carboxymethyl)[Bip]Y(Carboxymethyl)[Orn][dL][Dab][Cha][Val(3-OH)]SC[Dab][AEEA][AEEA]-{NH(CH2)12COOH}; thioether N-14), the IC50 was 19.2 nM.

Consider `CC[C@H](C)[C@@H]1NC(=O)[C@H](Cc2ccc(-c3ccccc3)cc2)NC(=O)[C@H](C(C)C)NC(=O)[C@H](Cc2cccc(C)c2)NC(=O)[C@H](CC(=O)O)NC(=O)[C@H](Cc2ccc(C(=O)O)cc2)NC(=O)[C@H](Cc2ccncc2)NC(=O)CSC[C@@H](C(=O)N[C@@H](C)C(=O)N[C@@H](CCC(=O)O)C(=O)NCCCCCCCCCCC(=O)O)NC(=O)[C@H]([C@@H](C)O)NC(=O)[C@H](C(C)C)NC(=O)[C@H](CC2CCCCC2)NC(=O)[C@H](CCN)NC(=O)[C@@H](CC(C)C)NC(=O)[C@H](CCCN)NC1=O` [Compound 1039], for which the IC50 was found to be 11.9 nM.

For `CC[C@H](C)[C@@H]1NC(=O)[C@H](Cc2ccc(-c3ccccc3)cc2)NC(=O)[C@H](C(C)C)NC(=O)[C@H](Cc2cccc(C)c2)NC(=O)[C@H](CC(=O)O)NC(=O)[C@H](Cc2ccc(C(=O)O)cc2)NC(=O)[C@H](Cc2ccncc2)NC(=O)CSC[C@@H](C(=O)N[C@@H](CCCNC(=N)N)C(=O)NCCCCCCCCCCC(=O)O)NC(=O)[C@H]([C@@H](C)O)NC(=O)[C@H](C(C)C)NC(=O)[C@H](CC2CCCCC2)NC(=O)[C@H](CCN)NC(=O)[C@@H](CC(C)C)NC(=O)[C@H](CCCN)NC1=O` [Compound 1186], the half-maximal inhibitory concentration (IC50) turned out to be 103 nM.

Turning to `Cc1cccc(C[C@@H]2NC(=O)[C@H](CC(=O)O)NC(=O)[C@H](Cc3ccc(OCC(=O)O)cc3)NC(=O)[C@H](CN)NC(=O)CSC[C@@H](C(=O)N[C@@H](CCN)C(=O)NCCCCCCCCCCC(=O)O)NC(=O)[C@H]([C@@H](C)O)NC(=O)[C@H](C(C)C)NC(=O)[C@H](CC3CCCCC3)NC(=O)[C@H](CCN)NC(=O)[C@@H](CC(C)C)NC(=O)[C@H](CCCN)NC(=O)[C@H](Cc3ccc(O)cc3)NC(=O)[C@H](Cc3ccc(-c4ccccc4)cc3)NC(=O)[C@H](Cc3ccc(OCC(=O)O)cc3)NC2=O)c1` [Compound 2090] ({CH2CO}-[Dap]Y(Carboxymethyl)D[Phe(3-Me)]Y(Carboxymethyl)[Bip]Y[Orn][dL][Dab][Cha]VTC[Dab][Aun]-OH; thioether N-14), the IC50 was found to be 18.4 nM.

Take `Cc1cccc(C[C@@H]2NC(=O)[C@H](CC(=O)O)NC(=O)[C@H](Cc3ccc(C#N)cc3)NC(=O)[C@H](C(C)O)NC(=O)CSC[C@@H](C(=O)N[C@@H](CCN)C(=O)NCCOCCOCC(=O)NCCCCCCCCCCC(=O)O)NC(=O)[C@H](Cc3cnc[nH]3)NC(=O)[C@H](C(C)(C)O)NC(=O)[C@H](CC3CCCCC3)NC(=O)[C@H](CCN)NC(=O)[C@@H](CC(C)C)NC(=O)[C@H](CCCN)NC(=O)[C@H](Cc3ccc(OCC(=O)O)cc3)NC(=O)[C@H](Cc3ccc(-c4ccccc4)cc3)NC(=O)[C@H](Cc3ccc(OCC(=O)O)cc3)NC2=O)c1` (stereo partly drawn) [Compound 3776] ({CH2CO}-[Thr(3ξ)][Phe(4-CN)]D[Phe(3-Me)]Y(Carboxymethyl)[Bip]Y(Carboxymethyl)[Orn][dL][Dab][Cha][Val(3-OH)]HC[Dab][AEEA][Aun]-OH; thioether N-14): the IC50 turned out to be 3.6 nM.

These data come from US20260022142A1, “MACROCYCLIC IMMUNOMODULATORS” (Bristol-Myers Squibb Company, priority 2022, published 2026).
